Reference: patent EP4796530A1 (Biocells (Beijing) Biotech Co., Ltd., priority 2023, dated 2025)

What was measured:
[1] = Mouse pharmacokinetics after intravenous administration (plasma and brain, LC-MS); format: in vivo; details: C57 mice, intravenous 5 mg/kg; for concentration at 120 min: brain after cardiac perfusion, read-out: brain drug concentration at 120 min; for half-life / AUC: plasma; for AUC: read-out: area under the curve (AUC) from 1 to 120 min
Method: C57 mice were administered intravenously, at a dosage concentration of 5 mg/kg in each group. Retro-orbital blood collection was performed on the mice at 1 min, 30 min, 1 h, and 2 h post-dosing. The collected blood was centrifuged at 3000 rpm for 10 min at 4 °C to obtain plasma. Acetonitrile was added at a 1:3 volume ratio of plasma: acetonitrile to precipitate proteins. After centrifugation, the supernatant was collected and filtered. The concentration of the compound was detected using LC-MS (Agilent 1260-G6125, SIM mode). In addition, 2 h after drug injection, the mice were subjected to cardiac perfusion and then their brains were harvested. Following tissue homogenization and centrifugation, the supernatant was collected. Acetonitrile was added at a 1:3 volume ratio of supernatant: acetonitrile to precipitate proteins. After centrifugation, the supernatant was collected and filtered. The concentration of the compound was detected using LC-MS (Agilent 1260-G6125, SIM mode).
(§1) Experimental groups: a vehicle control group, and a dosing group.

NLRP3 [2] = biological target: T1, NLRP3 (Homo sapiens, UniProt Q96P20); assay: Inhibition of canonical NLRP3 activation (LPS+Nig) in PMA-differentiated THP-1 cells, IL-1β release, single concentration; details: 1 µM compound, FIG. 6 legend
T1 sequence (Q96P20 whole entry): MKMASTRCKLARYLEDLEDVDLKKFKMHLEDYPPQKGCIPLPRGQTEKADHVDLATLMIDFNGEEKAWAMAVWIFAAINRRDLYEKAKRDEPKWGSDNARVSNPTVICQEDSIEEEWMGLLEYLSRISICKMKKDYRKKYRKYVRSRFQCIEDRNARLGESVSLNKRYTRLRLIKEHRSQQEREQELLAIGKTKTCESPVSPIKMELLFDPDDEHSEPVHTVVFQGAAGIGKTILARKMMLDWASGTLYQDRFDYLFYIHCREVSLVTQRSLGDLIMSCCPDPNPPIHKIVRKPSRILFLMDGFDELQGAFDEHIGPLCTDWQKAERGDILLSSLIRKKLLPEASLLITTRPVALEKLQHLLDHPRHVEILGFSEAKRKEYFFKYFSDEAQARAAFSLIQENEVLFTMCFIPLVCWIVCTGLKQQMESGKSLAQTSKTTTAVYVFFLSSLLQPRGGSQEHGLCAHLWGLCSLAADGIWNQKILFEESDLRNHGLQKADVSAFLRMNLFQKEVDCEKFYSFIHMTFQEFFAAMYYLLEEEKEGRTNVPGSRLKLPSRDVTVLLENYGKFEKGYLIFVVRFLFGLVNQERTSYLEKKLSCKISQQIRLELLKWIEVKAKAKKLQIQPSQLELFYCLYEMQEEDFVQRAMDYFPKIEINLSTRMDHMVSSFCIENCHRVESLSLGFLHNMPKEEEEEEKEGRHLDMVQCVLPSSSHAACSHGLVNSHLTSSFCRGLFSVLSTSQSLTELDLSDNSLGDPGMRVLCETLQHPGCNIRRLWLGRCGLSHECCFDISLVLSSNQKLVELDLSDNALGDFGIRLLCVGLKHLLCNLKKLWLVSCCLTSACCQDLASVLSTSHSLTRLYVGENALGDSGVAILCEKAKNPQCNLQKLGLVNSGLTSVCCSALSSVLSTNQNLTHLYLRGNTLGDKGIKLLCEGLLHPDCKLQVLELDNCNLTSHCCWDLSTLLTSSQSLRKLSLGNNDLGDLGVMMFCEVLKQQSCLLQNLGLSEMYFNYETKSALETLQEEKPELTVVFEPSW
Method: THP-1 cells were plated in a 96-well plate at a density of 1.0×10^6 cells/mL, with 100 µL per well. Subsequently, PMA-induced differentiation and cell resting were performed, followed by activation of NLRP3 by LPS+Nig.
Experimental groups: a negative control group, an LPS-alone incubation control group, an LPS+Nig positive control group, and a 1 µM example compound experimental group.
100 ng/mL PMA was added at the same time as THP-1 cells were plated. After incubation for 24 h, the cells were washed three times with PBS, and then the culture medium was changed and the cells were allowed to rest for 24 h. Then the culture medium was completely replaced with medium containing 1 µg/mL LPS. The cells were incubated overnight. On the next day, the wells to which LPS was added completely received culture medium, and then the wells were incubated with specified example compounds for 1 h.
In this experimental example, effectively inhibiting IL-1β release means that the release amount in each group is reduced by 50% or more compared with that of the positive control.

NLRP3 [3] = biological target: T2, NLRP3 (Mus musculus, UniProt Q8R4B8); assay: Inhibition of APOE peptide-induced NLRP3 activation in J774A.1 cells, IL-1β release; format: cell-based; set-up: The mouse macrophage cell line J774A.1 was used, and LPS was used as the first signal; host or cells: J774A.1 mouse monocyte-macrophage cell line; details: J774.A1, 10 µM compound, 30 µg/mL APOE peptide
T2 sequence (Q8R4B8 whole entry): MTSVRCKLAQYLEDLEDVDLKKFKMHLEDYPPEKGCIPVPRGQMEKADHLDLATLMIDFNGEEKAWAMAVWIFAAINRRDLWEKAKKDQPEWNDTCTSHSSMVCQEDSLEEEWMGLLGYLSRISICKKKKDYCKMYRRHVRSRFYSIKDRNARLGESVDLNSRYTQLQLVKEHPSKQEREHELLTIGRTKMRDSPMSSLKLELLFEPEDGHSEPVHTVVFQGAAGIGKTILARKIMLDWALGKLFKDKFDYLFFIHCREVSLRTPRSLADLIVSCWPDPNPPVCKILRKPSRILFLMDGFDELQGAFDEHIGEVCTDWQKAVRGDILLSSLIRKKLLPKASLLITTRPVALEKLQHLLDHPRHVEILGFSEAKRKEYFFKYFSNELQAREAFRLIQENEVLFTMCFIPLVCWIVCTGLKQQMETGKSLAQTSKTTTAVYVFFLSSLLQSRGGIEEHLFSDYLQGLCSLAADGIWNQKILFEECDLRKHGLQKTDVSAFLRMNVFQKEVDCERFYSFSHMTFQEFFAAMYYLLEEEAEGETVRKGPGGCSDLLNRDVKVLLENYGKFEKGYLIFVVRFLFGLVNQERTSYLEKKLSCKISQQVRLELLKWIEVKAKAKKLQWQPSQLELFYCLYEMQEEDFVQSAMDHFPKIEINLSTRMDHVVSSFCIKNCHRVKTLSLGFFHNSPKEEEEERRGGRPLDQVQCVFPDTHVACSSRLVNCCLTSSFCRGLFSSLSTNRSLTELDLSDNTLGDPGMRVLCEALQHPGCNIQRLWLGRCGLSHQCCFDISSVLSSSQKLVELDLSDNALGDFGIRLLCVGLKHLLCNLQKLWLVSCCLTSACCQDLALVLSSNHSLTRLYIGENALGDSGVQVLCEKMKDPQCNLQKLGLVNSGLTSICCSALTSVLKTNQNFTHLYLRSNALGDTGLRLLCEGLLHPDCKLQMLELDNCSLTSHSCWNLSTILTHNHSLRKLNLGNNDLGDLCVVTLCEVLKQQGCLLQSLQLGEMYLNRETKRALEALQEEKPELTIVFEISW
Method: J774A.1 cells were plated in a 48-well plate at a density of 1.0×10^6 cells/mL, with 300 µL per well. Subsequently, NLRP3 was activated by APOE peptide. The cell culture medium comprises: DMEM (brand: Gibco, Cat. No.: C12430500) + 10% fetal bovine serum (brand: Gibco, Cat. No.: 10099-141) + 1% sodium pyruvate (brand: Gibco, Cat. No.: 11360-070) + 1% penicillin-streptomycin solution (brand: Solarbio, Cat. No.: P1400). The J774A.1 mouse monocyte-macrophage cell line was purchased from the Cell Resource Center of the Institute of Basic Medical Sciences of Chinese Academy of Medical Sciences (Resource No. 1101MOU-PUMC000222). APOE2/3 peptide 1-151 was obtained through recombinant protein expression and purification by Biocells (Beijing) Biotech Co., Ltd. The procedures were as follows: the sequence (SEQ ID NO: 1) shown below was inserted into the pET-28A plasmid and transformed into BL-21(DE3) expression strain; the expression of target protein was induced with IPTG at a low temperature; after collecting the bacteria via centrifugation, ultrasonic disruption was performed; and after centrifugation, the supernatant was purified by nickel ion affinity chromatography (AKTA pure), and then the product was concentrated by ultrafiltration and identified by BCA+protein electrophoresis. Sequence: [formula]
Experimental groups: a negative control group, an APOE treatment control group, and an example compound experimental group.
After the plated J774A.1 cells adhering to the plate, the culture medium was replaced. The culture medium of the APOE treatment control group was replaced with cell culture medium containing 30 µg/mL APOE peptide, the culture medium of the example compound experimental group was replaced with culture medium containing 30 µg/mL APOE peptide combined with the compounds, and the negative control group received cell culture medium. Then, all the groups were incubated overnight. 18 h later, the cell supernatants were collected for IL-1β detection.
Activation of NLRP3 by APOE peptide will result in release of mature IL-1β, and the release can be inhibited by NLRP3 inhibitors. Therefore, the relative change in the amount of IL-1β release may directly reflect NLRP3 inhibitory effect.
In this experimental example, effective inhibition refers to a reduction of 70% or more in the release amount, compared with the release amount of the positive control minus the negative control.

NLRP3 [4] = biological target: T2, NLRP3; assay: Inhibition curves (IC50) of canonical NLRP3 activation in J774A.1 cells, IL-1β release; format: cell-based; set-up: The mouse macrophage cell line J774A.1 was used, and LPS was used as the first signal; host or cells: J774A.1 mouse monocyte-macrophage cell line; details: J774A.1 cell LPS+Nig activation model
Method: (§2) J774A.1 cells were plated in a 48-well plate at a density of 1.0×10^6 cells/mL, with 300 µL per well. Subsequently, NLRP3 was activated by LPS+ATP or LPS+Nig. […] ATP was purchased from Sigma, Cat. No.: L2654. Nig was purchased from Shanghai Yuanye Bio-Technology Co., Ltd., Cat. No.: S45490.
Experimental groups: a negative control group, an LPS-alone incubation control group, an LPS+ATP/Nig positive control group, and an example compound experimental group with different concentrations.
After the plated J774A.1 cells adhering to the plate, the culture medium was replaced. For all the groups except the negative control group, the culture medium was completely replaced with cell culture medium containing 1 µg/mL LPS. The negative control group received cell culture medium. Then, all the groups were incubated overnight. 18 h later, the culture medium was replaced again. The culture medium of the example compound experimental group was completely replaced with culture medium containing different concentrations of compounds; while the negative control group, the LPS-alone incubation control group, and the LPS+ATP/Nig positive control group received cell culture medium. 1 h later, the culture mediums of the LPS+ATP/Nig positive control group and the example compound experimental group with different concentrations were completely replaced with cell culture medium containing 5 mM ATP or 10 µM Nig. 1 h later, the cell supernatants were collected for IL-1β detection.
(§3) Therefore, the relative change in the amount of IL-1β release may directly reflect NLRP3 inhibitory effect. The inhibitory effect of the compounds varies with different concentrations, and based on this, an inhibition curve can be constructed, and the inhibitory effects of the compounds were assessed by IC50.

NLRP3 [5] = biological target: T2, NLRP3; assay: Inhibition of canonical NLRP3 activation (LPS+ATP/Nig) in J774A.1 cells, IL-1β release by ELISA, single concentration; format: cell-based; set-up: The mouse macrophage cell line J774A.1 was used, and LPS was used as the first signal; host or cells: J774A.1 mouse monocyte-macrophage cell line; details: J774.A1, 1 µM compound, LPS + 5 mM ATP or 10 µM Nig, compared with the positive control, read-out: inhibition of IL-1β release
Method: as §2, with “using LPS+5 mM ATP (adenosine triphosphate)” for “by LPS+ATP”, “10 µM Nig (nigericin).” for “LPS+Nig.”
Experimental groups: a negative control group, an LPS-alone incubation control group, an LPS+ATP or +Nig positive control group, and an example compound experimental group.
After the plated J774A.1 cells adhering to the plate, the culture medium was replaced. For all the groups except the negative control group, the culture medium was completely replaced with cell culture medium containing 1 µg/mL LPS. The negative control group received cell culture medium. Then, all the groups were incubated overnight. 18 h later, the culture medium was replaced again. The culture medium of the example compound experimental group was completely replaced with cell culture medium containing the compounds; while the negative control group, the LPS-alone incubation control group, and the LPS+ATP/Nig positive control group received cell culture medium. 1 h later, the culture mediums of the LPS+ATP/Nig positive control group and the example compound experimental group were completely replaced with cell culture medium containing 5 mM ATP or 10 µM Nig. 1 h later, the cell supernatants were collected for IL-1β detection.
Therefore, the relative change in the amount of IL-1β release may directly reflect NLRP3 inhibitory effect.

NLRP3 [6] = biological target: T1, NLRP3; assay: Inhibition curves (IC50) of canonical NLRP3 activation (LPS+Nig) in THP-1 cells, IL-1β release; format: cell-based; set-up: host or cells: THP-1 human acute monocytic leukemia cell line, PMA-differentiated; details: THP-1 cell LPS+Nig activation model
Method: Nig was purchased from Shanghai Yuanye Bio-Technology Co., Ltd., Cat. No.: S45490.
The cells were incubated overnight.
as §3

[7] = Rat plasma pharmacokinetics after intravenous administration (LC-MS); format: in vivo; details: SD rats, intravenous 2.5 mg/kg
Method: SD rats were administered intravenously, at a dosage concentration of 2.5 mg/kg in each group. Blood was collected at the time points of 1 min, 30 min, 1 h, 2 h, 4 h, 6 h, and 24 h. The collected blood was centrifuged at 3000 rpm for 10 min at 4 °C to obtain plasma. Acetonitrile was added at a 1:3 volume ratio of plasma: acetonitrile to precipitate proteins. After centrifugation, the supernatant was collected and filtered. The concentration of the compound was detected using LC-MS (Agilent 1260-G6125, SIM mode).
as §1

NLRP3 [8] = biological target: T1, NLRP3; assay: Inhibition curves (IC50) of canonical NLRP3 activation in healthy human whole blood, IL-1β release; format: cell-based; details: LPS+1 mM ATP canonical activation model
Method: 10 mL of human whole blood was collected intravenously aseptically, and plated into a 96-well plate, with 198 µL per well. Then, 2 µL of 100× gradient dilutions of the example compounds at specified concentrations were added, immediately followed by the addition of 10 µL of 21 µg/mL LPS gradient dilution. 3 h later, nigericin with a working concentration of 5 µM or 1 mM ATP was added. After stimulation for 1 h, the whole blood was collected and centrifuged to collect the supernatant. IL-1β in the sample supernatant was detected by ELISA method.
Experimental groups: a negative control group, an LPS-alone incubation control group, an LPS+Nig/ATP positive control group, and a 1 µM example compound experimental group.
10 mL of human whole blood was collected intravenously aseptically. The anticoagulant heparin sodium was added preemptively into a 50 mL centrifuge tube. The collected whole blood was directly plated in a 96-well plate, with 198 µL per well. […] IL-1β in the sample supernatant was detected by ELISA method.
Therefore, the relative change in the amount of IL-1β release may directly reflect NLRP3 inhibitory effect. The inhibitory effect of the compounds varies with different concentrations, and based on this, an inhibition curve can be constructed, and the inhibitory effect of the compounds were assessed by IC50.

Row | SMILES | concentration at 120 min [1] | half-life [1] | AUC [1] | inhibition at 10 µM (NLRP3 [3]) | IC50 (NLRP3 [4]) | inhibition at 1 µM (NLRP3 [5]) | further results
1 | CN(C)Cc1cc(S(=O)(=O)NC(=O)Nc2c3c(cc4c2CCC4)CCC3)cc(F)c1O [Example 17, 3-((dimethylamino)methyl)-5-fluoro-N-((1,2,3,5,6,7-hexahydro-s-indacen-4-yl)carbamoyl)-4-hydroxybenzenesulfonamide] | 184 ng/mL | 3.85 h | 15500 ng·h/mL | ≥ 70% | 194 nM | > 80% | reduction in release amount compared with that of the positive control minus the LPS-alone control (NLRP3 [2]): ≥ 75%
2 | Cc1c(S(=O)(=O)NC(=O)Nc2c3c(cc4c2CCC4)CCC3)ccc(O)c1CN(C)C [Example 30, 3-((dimethylamino)methyl)-N-((1,2,3,5,6,7-hexahydro-s-indacen-4-yl)carbamoyl)-4-hydroxy-2-methylbenzenesulfonamide] | – | – | – | – | 144 nM | – | IC50 (NLRP3 [6]): 36.7 nM
3 | CN(C)C1CCOc2c1cccc2S(=O)(=O)NC(=O)Nc1c2c(cc3c1CCC3)CCC2 (stereo not shown) [Example 32, 4-(dimethylamino)-N-((1,2,3,5,6,7-hexahydro-s-indacen-4-yl)carbamoyl)chromane-8-sulfonamide] | – | – | – | – | 390 nM | – | –
4 | CN(C)Cc1c(O)ccc(S(=O)(=O)NC(=O)Nc2c3c(cc4c2CCC4)CCC3)c1F [Example 31, 3-((dimethylamino)methyl)-2-fluoro-N-((1,2,3,5,6,7-hexahydro-s-indacen-4-yl)carbamoyl)-4-hydroxybenzenesulfonamide] | – | – | – | – | 203 nM | – | –
5 | Cc1c(CN(C)C)cccc1S(=O)(=O)NC(=O)Nc1c2c(cc3c1CCC3)CCC2 [Example 26, 3-((dimethylamino)methyl)-N-((1,2,3,5,6,7-hexahydro-s-indacen-4-yl)carbamoyl)-2-methylbenzenesulfonamide] | – | – | – | ≥ 70% | 81.6 nM | > 80% | –
6 | CN(C)Cc1cccc(S(=O)(=O)NC(=O)Nc2c3c(cc4c2CCC4)CCC3)c1Cl [Example 1, 2-chloro-3-((dimethylamino)methyl)-N-((1,2,3,5,6,7-hexahydro-s-indacen-4-yl)carbamoyl)benzenesulfonamide] | – | – | – | – | 64.6 nM | > 80% | –
7 | CC(C)(O)c1coc(S(=O)(=O)NC(=O)Nc2c3c(cc4c2CCC4)CCC3)c1 [MCC950, reference compound] | 0 ng/mL | 1.28 h | 29600 ng·h/mL | – | – | – | half-life [7]: 0.267 h; AUC ([7]; read-out: AUC from 1 to 1440 min): 4380 ng·h/mL
8 | CN(C)Cc1cccc(S(=O)(=O)NC(=O)Nc2c3c(cc4c2CCC4)CCC3)c1O [Example 27, 3-((dimethylamino)methyl)-N-((1,2,3,5,6,7-hexahydro-s-indacen-4-yl)carbamoyl)-2-hydroxybenzenesulfonamide] | 96 ng/mL | 2.88 h | 47300 ng·h/mL | – | 79.6 nM | > 80% | IC50 (NLRP3 [8]): 55800 nM; reduction in release amount compared with that of the positive control minus the LPS-alone control (NLRP3 [2]): ≥ 75%
9 | CN(C)Cc1cc(S(=O)(=O)NC(=O)Nc2c3c(cc4c2CCC4)CCC3)c(F)cc1N [Example 22, 4-amino-5-((dimethylamino)methyl)-2-fluoro-N-((1,2,3,5,6,7-hexahydros-indacen-4-yl)carbamoyl)benzenesulfonamide] | – | – | – | ≥ 70% | 127 nM | > 80% | –
